These are literature values, as cited in publication PMC8287861 (Frontiers in Microbiology, 2021).

In data set [1] the test system is β-lactamases. The settings on record: ref Hecker et al. (2020).
Data set [2] relates to carbapenem resistant Acinetobacter baumannii. The settings on record: ref Nelson et al., 2020b.
Data set [3] relates to Pseudomonas aeruginosa. Further details: method as in Lomovskaya et al. (2021). The settings on record: panel reflecting current MIC distribution (N = 500); QPX7728 at 8 μg/ml; ref Lomovskaya et al. (2021).
The subject of data set [4] is Pseudomonas aeruginosa. On the set-up: method as in Lomovskaya et al. (2021). To be noted: challenge panel, QPX7728 at 8 μg/ml, ref Lomovskaya et al. (2021).
In data set [5] the test system is KPC-producing strains of Klebsiella pneumoniae and blaKPC mutants. Further details: method as in Nelson et al., 2019. To be noted: ref Nelson et al., 2019.
Data set [6] concerns CTX-M-15. On the set-up: method as in Tsivkovski et al. (2020). To be noted: CTX-M-15, class A; ref Tsivkovski et al. (2020).
Data set [7] deals with NDM-1. Further details: method as in Tsivkovski et al. (2020). To be noted: class B, ref Tsivkovski et al. (2020).
Data set [8] has as its system CTX-M-14. Further details: method as in Tsivkovski et al. (2020). The settings on record: CTX-M-14, class A; ref Tsivkovski et al. (2020).
Data set [9] deals with P99. On the set-up: method as in Tsivkovski et al. (2020). The settings on record: P99, class C; ref Tsivkovski et al. (2020).
Data set [10] concerns SHV-12. The settings on record: SHV-12, class A; ref Tsivkovski et al. (2020).
Data set [11] relates to VIM-1. Further details: method as in Tsivkovski et al. (2020). To be noted: VIM-1, class B; ref Tsivkovski et al. (2020).
The test system of data set [12] is IMP-1. Further details: method as in Tsivkovski et al. (2020). To be noted: class B, ref Tsivkovski et al. (2020).
In data set [13] the test system is KPC-2. The settings on record: ref Papp-Wallace et al., 2018.
Data set [14] concerns IMP-26. Further details: method as in Tsivkovski et al. (2020). The settings on record: class B, ref Tsivkovski et al. (2020).
Where [15] appears, read: 275 clinical isolates, meropenem alone.

Converted amounts (≈) assume the structure as drawn. Where two headings read alike, the source gives them in different places.

For `COc1ccc2c(c1C(=O)O)OB(O)[C@@H](Sc1nncs1)C2` [RPX7546], in data set [1], the “β-lactamase inhibition (in words)” value is “improved potency against MBLs”.

Turning to `C[C@@H](O)[C@H]1C(=O)N2C(C(=O)O)=C(S[C@@H]3CN[C@H](C(=O)N(C)C)C3)[C@H](C)[C@H]12` [Meropenem, meropenem], the MIC50 in data set [2] (setting [15]) was 64 µg/mL (≈ 167 µM); in data set [3] it was 0.5 µg/mL (≈ 1.3 µM); in data set [4] (All (N = 290)), 16 µg/mL (≈ 41.7 µM); in [4] (MBL (N = 61)), >64 µg/mL; in data set [4] (No MBL (N = 229)), 16 µg/mL (≈ 41.7 µM). In addition, the MIC90 in data set [2] (setting [15]) is > 64 µg/mL; in [3], 16 µg/mL (≈ 41.7 µM); in data set [4] (All (N = 290)) it was >64 µg/mL; in data set [4] (MBL (N = 61)), >64 µg/mL; in [4] (No MBL (N = 229)) it was 64 µg/mL (≈ 167 µM). Besides, the MIC90 of meropenem is 8 µg/mL in data set [2] (with QPX7728 at 4 μg/ml) and 4 µg/mL in [2] (with QPX7728 at 8 μg/ml). Further, in data set [2] (with increasing concentrations of QPX7728 (1–16 μg/ml)), the “increase in meropenem potency” value is listed as 8–16 fold. Moreover, the MIC in data set [5] (KP1252, KPC-3, TEM-1, SHV-11/FL) was 64 µg/mL (≈ 167 µM); in data set [5] (KPM3191, KPC-3:: DDK duplication at aa#831 (KPC-29)), 4 µg/mL (≈ 10.4 µM); in [5] (KPM3192, KPC-3:: D179Y (KPC-31)), 0.5 µg/mL (≈ 1.3 µM); in [5] (KPM3200, KPC-3::duplication of EAVI (aa#278)), 64 µg/mL (≈ 167 µM); in data set [5] (KPM3205, KPC-3 ::duplication of KKDY (aa#273)), 16 µg/mL (≈ 41.7 µM); in data set [5] (KPM3210, KPC-2::D179N), 4 µg/mL (≈ 10.4 µM). Further, the MIC in data set [5] (KPM3212, deletion of ELNSAI at aa#497) was 1 µg/mL (≈ 2.61 µM); in [5] (KPM3213, KPC-2::D179Y (KPC-31), selected from KP1099) it was 4 µg/mL (≈ 10.4 µM); in [5] (KPM3214, KPC-2::D179A), 2 µg/mL (≈ 5.22 µM); in [5] (KPM3493, KPC-3::duplication of EL at aa#164 (KPC-25)) it was 1 µg/mL (≈ 2.61 µM); in [5] (KPM3494, KPC-3::R167S), 32 µg/mL (≈ 83.4 µM); in data set [5] (KPM3495, KPC-3::A175V) it was 32 µg/mL (≈ 83.4 µM). In addition, the MIC is 4 µg/mL (≈ 10.4 µM) in data set [5] (KPM3511, KPC-3::P174Q) and 8 µg/mL (≈ 20.9 µM) in data set [5] (KPM3512, KPC-3:: P174L).

In the case of `CSCC(=O)N[C@H]1Cc2ccc(F)c(C(=O)O)c2OB1O` [RPX7323], the “β-lactamase inhibition (in words)” value in data set [1] was “capable of potently inhibiting serine enzymes from classes A-D”.

As for `O=C(NC1CCNCC1)[C@@H]1CC[C@@H]2CN1C(=O)N2OS(=O)(=O)O` [Relebactam, relebactam], the IC50 in data set [6] is 0.076 ± 0.003 µM; in [7], > 160 µM; in data set [8], 0.034 ± 0.01 µM; in [9], 0.036 ± 0.004 µM; in data set [10] it was 0.33 ± 0.05 µM; in [11] it was > 160 µM. Besides, the IC50 in [12] and in data set [14] was > 160 µM in each case. In addition, the residence time in data set [13] is recorded as 1.5 h.
